Test system: BRAF V600E mutant mice
Assay: Seizure reduction by BRAF V600E specific inhibitor in BRAF V600E mutant mice (video-EEG brainwave monitoring)
Assay type: in vivo, mouse

For `CCCS(=O)(=O)Nc1ccc(F)c(C(=O)c2c[nH]c3ncc(-c4ccc(Cl)cc4)cc23)c1F` [BRAF V600E specific inhibitor, Vemurafenib], the seizure frequency (acute intracerebroventricular injection (3 times/day, 5 uL injection for 8 minutes), FIG. 17 left) was “not reduced”, the “seizures over time (electrophysiologically confirmed)” value (cICV treatment for 6 weeks, FIG. 15 C) was “continuously reduced” and the “reduction of icta (ictal) seizures” value (chronic intracranioventricular injection (cICV), 500 um PLX4032 via osmotic pump, vs vehicle, FIG. 15 B) was “about 4 times”. The seizure frequency (oral administration (PO, per oral), FIG. 17 right) was “not reduced”.

— patent US20200360537A1, “A GANGLIOGLIOMA-INDUCED ANIMAL MODEL AND A METHOD FOR DIAGNOSING AND TREATING GANGLIOGLIOMA AND RELATED DISEASES” (KOREA ADVANCED INSTITUTE OF SCIENCE AND TECHNOLOGY, priority 2017, published 2020)
